Test systems include ACHN renal; CAKI-1 renal; HS 578T breast; M14 melanoma; MDA-MB-435; NCI-H23 lung; OVCAR-8 ovarian; SK-MEL-28 melanoma; UACC-257 melanoma; UACC-62 melanoma.
Test in all cases: NCI anticancer screen, dose series, 48 h

This is an account of results in PubChem BioAssay (NCI).

Structures are written as SMILES.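 Cells were grown in 96-well plates and exposed to each compound for 48 hours at five concentrations; endpoints were interpolated linearly between bracketing concentrations, or set to the highest concentration if not reached. GI50: concentration for 50% inhibition of growth. Definition used: TGI = concentration required for complete inhibition of growth.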 Bounds are passed on as bounds.

On to `C/C(=N\NC(=S)N1CCCCCCCCCCCC1)c1ccccn1`, for which the TGI was determined as 1.41 µM with ACHN renal; 1.15 µM with CAKI-1 renal; 0.942 µM in the assay with HS 578T breast; 2.15 µM in the assay on M14 melanoma; 0.721 µM with MDA-MB-435; 2.81 µM in the assay on NCI-H23 lung. For the same compound, the TGI was 1.9 µM with OVCAR-8 ovarian, 2.02 µM with SK-MEL-28 melanoma and 0.414 µM with UACC-257 melanoma.

`Oc1ccc(CCNCc2cc3c(cc2Br)OCO3)cc1`: the TGI was above 100 µM in the assay with ACHN renal; above 100 µM with HS 578T breast; above 100 µM in the assay on M14 melanoma; above 100 µM in the assay on NCI-H23 lung; above 100 µM in the assay on OVCAR-8 ovarian; 98.2 µM in the assay with SK-MEL-28 melanoma. Also, the TGI in the assay with UACC-257 melanoma and in the assay on UACC-62 melanoma was above 100 µM throughout.

As to `COc1c(-c2ccc(O)c(O)c2)oc2c(O)c(O)cc(O)c2c1=O`, the TGI in the assay with ACHN renal, in the assay with CAKI-1 renal, in the assay with HS 578T breast, in the assay on MDA-MB-435, in the assay on NCI-H23 lung and with OVCAR-8 ovarian was above 100 µM each time. Besides, the TGI in the assay on SK-MEL-28 melanoma, in the assay with UACC-257 melanoma and with UACC-62 melanoma was above 100 µM in each case.

For `O=C1Nc2ccccc2/C1=C\c1nc(C2CCN(S(=O)(=O)c3ccc(F)cc3)CC2)n2ccccc12`, the GI50 is 4.07 µM in the assay on ACHN renal; 1.73 µM with CAKI-1 renal; 1.22 µM in the assay with HS 578T breast; above 100 µM with M14 melanoma; 4.29 µM in the assay with NCI-H23 lung; 1.39 µM with OVCAR-8 ovarian. The GI50 in the assay with SK-MEL-28 melanoma was above 100 µM. Also, the TGI in the assay on ACHN renal was above 100 µM; with CAKI-1 renal, above 100 µM; in the assay on HS 578T breast, 5.78 µM; with M14 melanoma, above 100 µM; in the assay on NCI-H23 lung, 68.4 µM; in the assay with OVCAR-8 ovarian, 6.77 µM. The compound further gave a TGI in the assay with SK-MEL-28 melanoma above 100 µM.

For `Cc1ccc(C(SCC(N)C(=O)O)(c2ccccc2)c2ccccc2)cc1` (centres undefined), the GI50 in the assay on ACHN renal was 2.67 µM; in the assay with CAKI-1 renal, 0.151 µM; with HS 578T breast, 0.0371 µM; in the assay with M14 melanoma, 0.0247 µM; in the assay with NCI-H23 lung, 0.236 µM; in the assay on OVCAR-8 ovarian, 0.139 µM. For the same compound, the GI50 in the assay with SK-MEL-28 melanoma is 6.5 µM; in the assay with UACC-257 melanoma, 22.8 µM; in the assay on UACC-62 melanoma, 0.0561 µM. Further, the TGI with ACHN renal was above 100 µM; with CAKI-1 renal, above 100 µM; in the assay on HS 578T breast it was 0.913 µM; in the assay on M14 melanoma, 0.0663 µM; in the assay on NCI-H23 lung, above 96 µM; in the assay on OVCAR-8 ovarian, above 100 µM. The results for the TGI with SK-MEL-28 melanoma, in the assay with UACC-257 melanoma and in the assay with UACC-62 melanoma were above 100 µM, above 100 µM and above 59.4 µM, respectively.

On to `Cc1ccc(C2=C(c3ccccc3)C(c3ccccc3)Oc3ccc(C)cc32)cc1` (centres undefined), for which the GI50 is 16.6 µM in the assay on ACHN renal; 12.7 µM with CAKI-1 renal; 2.74 µM in the assay with HS 578T breast; 1.56 µM with M14 melanoma; 8.5 µM with MDA-MB-435; 2.2 µM with NCI-H23 lung. The GI50 is 6.92 µM with OVCAR-8 ovarian, 9.2 µM in the assay on UACC-257 melanoma and 10 µM in the assay on UACC-62 melanoma. In addition, the TGI is 31.2 µM with ACHN renal; 31.4 µM with CAKI-1 renal; 10.1 µM in the assay with HS 578T breast; 3.05 µM in the assay with M14 melanoma; 26.8 µM in the assay with MDA-MB-435; 5.53 µM with NCI-H23 lung. Moreover, the TGI in the assay on OVCAR-8 ovarian came to 26.7 µM; in the assay with UACC-257 melanoma, 23.7 µM; with UACC-62 melanoma, 22.8 µM.

Regarding `CC(C)CC(Nc1c(O)ccc2ccccc12)C(=O)O` (centres undefined), the TGI was 76 µM in the assay on ACHN renal; 47.4 µM in the assay with CAKI-1 renal; 95.9 µM with HS 578T breast; above 100 µM with M14 melanoma; 45.6 µM with MDA-MB-435; above 100 µM with NCI-H23 lung. For the same compound, the TGI in the assay on SK-MEL-28 melanoma is above 100 µM; with UACC-257 melanoma it was 50.3 µM; in the assay with UACC-62 melanoma, 72.3 µM.

In the case of `C=C(CC(=O)O)C(=O)O` (tested in a mixture with another compound), the GI50 with ACHN renal, in the assay with CAKI-1 renal, in the assay on HS 578T breast, in the assay with M14 melanoma, with NCI-H23 lung and in the assay with OVCAR-8 ovarian was above 50 mg/L throughout. Besides, the GI50 in the assay on SK-MEL-28 melanoma, in the assay on UACC-257 melanoma and in the assay with UACC-62 melanoma was above 50 mg/L throughout. The TGI with ACHN renal, with CAKI-1 renal, with HS 578T breast, in the assay with M14 melanoma, with NCI-H23 lung and in the assay on OVCAR-8 ovarian was above 50 mg/L throughout. The TGI in the assay on SK-MEL-28 melanoma, with UACC-257 melanoma and with UACC-62 melanoma was above 50 mg/L throughout.

For the compound `COc1cccc2c1C(=O)c1c(O)c3c(c(O)c1C2=O)C[C@@](O)(C(=O)CO)CC3OC1CC(O)C(O)C(C)O1` (some centres undefined), the TGI was 0.598 µM in the assay with ACHN renal; 12.1 µM in the assay on CAKI-1 renal; 1.88 µM in the assay with M14 melanoma; 2.05 µM in the assay with MDA-MB-435; 0.501 µM with NCI-H23 lung; 9.78 µM with OVCAR-8 ovarian. For the same compound, the TGI in the assay on SK-MEL-28 melanoma is 2.28 µM; in the assay with UACC-257 melanoma it was 2.99 µM; in the assay with UACC-62 melanoma, 0.492 µM.

For the compound `CCCCCCCCCCCCCCCC(=O)OCC1OC(OC)C2NP(=O)(N(CCCl)CCCl)OC1C2O` (centres undefined), the TGI was determined as 40.6 µM with ACHN renal; 10.5 µM with CAKI-1 renal; 18.1 µM in the assay on M14 melanoma; 21.7 µM with MDA-MB-435; 6.76 µM in the assay on NCI-H23 lung; 13.5 µM in the assay on OVCAR-8 ovarian. The TGI came out at 61.1 µM in the assay with SK-MEL-28 melanoma, 42.9 µM with UACC-257 melanoma and 8.71 µM in the assay on UACC-62 melanoma.

`CCOC(=O)c1c(C)nc2c(c1N)CC(=O)N2CCc1ccccc1`: the GI50 with ACHN renal is 0.595 µM; in the assay on HS 578T breast, 12.4 µM; with M14 melanoma, 0.845 µM; with MDA-MB-435, 0.354 µM; in the assay on NCI-H23 lung it was 5.46 µM; in the assay with OVCAR-8 ovarian, 3.17 µM. For the same compound, the GI50 was 2.35 µM in the assay with SK-MEL-28 melanoma, 4.68 µM in the assay with UACC-257 melanoma and 0.629 µM in the assay with UACC-62 melanoma. The TGI with ACHN renal turned out to be 6.48 µM; with HS 578T breast, 62.3 µM; in the assay on M14 melanoma, 3.47 µM; with MDA-MB-435, 15.4 µM; with NCI-H23 lung it was 23 µM; in the assay with OVCAR-8 ovarian it was 16.7 µM. Moreover, the TGI in the assay on SK-MEL-28 melanoma worked out at 12.1 µM; with UACC-257 melanoma, 19.4 µM; in the assay with UACC-62 melanoma, 17.2 µM.
